Measured values as given in patent publication US7368576B2, “Dipeptidyl peptidase IV inhibitors and their uses as anti-cancer agents” (Probiodrug AG, priority 2001, dated 2008).
Values joined by “and” are separate entries in the source; they are usually repeats but may differ in a detail not shown here. Equal entries are not always repeated. “Also recorded” adds a separate entry of the source. Where two headings read alike, the source gives them in different places. Square brackets hold non-standard residues; d marks the D form. Peptide text beside a SMILES is read from it. pY = N[C@@H](Cc1ccc(OP(=O)(O)O)cc1)C(=O)O; Hyp = O=C(O)[C@@H]1C[C@@H](O)CN1; Tic = O=C(O)[C@@H]1Cc2ccccc2CN1; Tle = CC(C)(C)[C@H](N)C(=O)O

Tests used:
plasma DPIV activity = molecular target: T1, plasma DPIV activity (Rattus norvegicus, UniProt P14740); assay: DPIV inhibiting activity after intravasal and oral administration to Wistar rats; format: in vivo; details: 100 mg/kg; for In vivo DPIV-inhibition at tmax, i.v. (%): intra-vasal (intra-arterial); for In vivo DPIV-inhibition at tmax, p.o. (%): oral
T1 construct: determination of plasma DPIV activity consisted of 80 μl reagent and 20 μl plasma sample; from tissue; host or cells: plasma of Wistar rats after i.v. or p.o. dosing
Description: Male Wistar rats (Shoe: Wist(Sho)) with a body weight ranging between 250 and 350 g were purchased from Tierzucht Schönwalde (Schönwalde, Germany).
After overnight fasting, 100 μl samples of heparinised arterial blood were collected at −30, −5, and 0 min. […] In the case of oral administration, an additional volume of 1 ml saline was injected into the arterial catheter. In the case of intra-arterial administration, the catheter was immediately flushed with 30 μl saline and an additional 1 ml of saline was given orally via the feeding tube.
All blood samples were collected into ice cooled Eppendorf tubes (Eppendorf-Netheler-Hinz, Hamburg, Germany) filled with 10 μl 1M sodium citrate buffer (pH 3.0) for plasma DPIV activity measurement. Eppendorf tubes were centrifuged immediately (12000 rpm for 2 min, Hettich Zentrifuge EBA 12, Tuttlingen; Germany): The plasma fractions were stored on ice until analysis or were frozen at −20° C. until analysis. All plasma samples were labelled with the following data: • Code number • Animal Number • Date of sampling • Time of sampling Analytical Methods
The assay mixture for determination of plasma DPIV activity consisted of 80 μl reagent and 20 μl plasma sample. […] The DPIV activity was expressed in mU/ml.

[1] = molecular target: T2, dipeptidyl peptidase IV from porcine kidney (Sus scrofa, UniProt P22411); assay: Ki determination, DPIV inhibition (glycylprolyl-4-nitroaniline); format: biochemical; details: HEPES pH7.6, 30° C.
T2 construct: dipeptidyl peptidase IV from porcine kidney; from tissue; host or cells: porcine kidney

purified porcine DPIV = purified porcine DPIV (Sus scrofa, UniProt P22411); assay: Determination of IC50 values, DPIV (Gly-Pro-pNA); format: biochemical; details: Gly-Pro-pNA 0.4 mM, HEPES pH7.6, 30° C.
Description: 100 μl inhibitor stock solution were mixed with 100 μl buffer (HEPES pH7.6) and 50 μl substrate (Gly-Pro-pNA, final concentration 0.4 mM) and preincubated at 30° C. Reaction was started by addition of 20 μl purified porcine DPIV. Formation of the product pNA was measured at 405 nm over 10 min using the HTS 7000Plus plate reader (Perkin Elmer) and slopes were calculated. The final inhibitor concentrations ranged between 1 mM and 30 nM. For calculation of IC50 GraFit 4.0.13 (Erithacus Software) was used.

[2] = molecular target: T3, porcine dipeptidyl peptidase II (DP II) (Sus scrofa, UniProt A0A5G2QK18); assay: Inhibition of DPIV-like enzymes, dipeptidyl peptidase II; format: biochemical; details: lysylalanylaminomethylcoumarine, 30° C.; read-out: Ki against porcine dipeptidyl peptidase II
T3 construct: The enzyme used was purified from porcine kidney; from tissue; host or cells: porcine kidney
Description: DP II (3.4.14.2) releases N-terminal dipeptides from oligopeptides if the N-terminus is not protonated (McDonald, J. K., Ellis, S. & Reilly, T. J., 1966, J. Biol. Chem., 241, 1494-1501). Pro and Ala in Pi-position are preferred residues. The enzyme activity is described as DPIV-like activity, but DP II has an acidic pH-optimum. The enzyme used was purified from porcine kidney.
100 μl glutaminyl pyrrolidine or glutaminyl thiazolidine in an concentration range of 1*10^−4 M-5*10^−8 M were admixed with 100 μl μl buffer solution (40 mM HEPES, pH7.6, 0.015% Brij, 1 mM DTT), 50 μl lysylalanylaminomethylcoumarine solution (5 mM) and 20 μl porcine DP II (250fold diluted in buffer solution). Fluorescence measurement was performed at 30° C. and λexiatation=380 nm, λemission=465 nm for 25 min using a plate reader (HTS7000plus, Applied Biosystems, Weiterstadt, Germany).

PepT1 [3] = molecular target: T4, PepT1 (Oryctolagus cuniculus, UniProt P36836); assay: Inhibition of 3H-D-Phe-Ala binding to PepT1-expressing P. pastoris cells
T4 construct: expressed in transfected cells; host or cells: Pichia pastoris cells expressing PepT1 (per the assay description)
T4 sequence (P36836 1-707): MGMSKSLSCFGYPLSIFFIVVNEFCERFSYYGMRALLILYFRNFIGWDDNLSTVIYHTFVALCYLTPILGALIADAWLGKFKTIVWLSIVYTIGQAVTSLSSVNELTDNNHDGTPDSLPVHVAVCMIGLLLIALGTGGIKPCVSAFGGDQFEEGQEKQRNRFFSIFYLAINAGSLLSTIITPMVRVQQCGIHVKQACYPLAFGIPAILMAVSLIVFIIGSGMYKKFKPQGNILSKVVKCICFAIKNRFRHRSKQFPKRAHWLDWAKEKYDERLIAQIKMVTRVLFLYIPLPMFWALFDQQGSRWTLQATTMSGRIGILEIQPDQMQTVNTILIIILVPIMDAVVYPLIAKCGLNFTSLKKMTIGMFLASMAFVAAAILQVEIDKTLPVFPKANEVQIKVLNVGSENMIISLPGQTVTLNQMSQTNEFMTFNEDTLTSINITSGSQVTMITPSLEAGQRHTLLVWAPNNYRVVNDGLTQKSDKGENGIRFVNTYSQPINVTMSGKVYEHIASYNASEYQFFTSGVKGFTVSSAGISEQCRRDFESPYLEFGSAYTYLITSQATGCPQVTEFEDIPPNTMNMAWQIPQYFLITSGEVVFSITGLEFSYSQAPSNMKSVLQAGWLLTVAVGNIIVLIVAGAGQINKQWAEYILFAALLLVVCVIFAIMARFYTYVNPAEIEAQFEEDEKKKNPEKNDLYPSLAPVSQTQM
Text: (§1) Side chain-modified glutamyl thiazolidines having a structure H-Glu(X)-Thia were synthesised, with polyethylene glycol or glycine oligomers of various chain lengths being used as X (see Method A of example for description of synthesis). The binding characteristics of those derivatives and their transportability by the peptide transporter PepT1 were investigated.

PepT1 [4] = assay: Transport at PepT1-expressing oocytes of X. leavis, two-electrode voltage clamp; format: cell-based
Text: as §1

MADB106 tumor cells = assay: In vivo cancer cell adhesion assay (CFSE labeled cells in lungs); design: species or system F344 rats; details: wild-type F344USA rats, single injection i.v. + i.p., 30 min after inoculation, vs. saline; fumarate
Description: Cell culture, injection of tumor cells, dissection of the animals and immunohistochemistry were conducted as previously described (von Hörsten et al., 2000). In brief, 1×10^6 MADB106 tumor cells derived from log phase of tumor growth were injected via the lateral tail vein and lungs removed at different time points thereafter. For in situ quantification of tumor cells at early time points after injection (30 min), cells were vital dye stained using the fluorescein derivate 5- (and -6)-carboxyfluorescein diacetate succinimidyl ester (CFSE) before injection.
Control sections were included in which one or both primary antibodies were omitted.
Vital dye (Carboxyfluorescein; CFSE) labeling of MADB106 tumor cells allows the quantification of tumor cells and NK cells in thick sections of lung tissue by stereology in situ (von Hörsten et al, 2000). In the present study we produced thin sections (8 μm) of the same lungs (n=10) and performed additional microscopic counting by image analysis of DE1 positive cells. This was done to further simplify the previously validated stereological quantification technique. Therefore, in the present study, the assessment of DE1 positive tumor cells in lung tissue from different substrains 30 min after tumor inoculation was carried out using image analysis approach. […] Each right upper lobe of the lungs was sectioned at 6 randomly chosen non-adjacent levels. From each level, three sections were evaluated.

T1 sequence (P14740 37-767 limits assumed): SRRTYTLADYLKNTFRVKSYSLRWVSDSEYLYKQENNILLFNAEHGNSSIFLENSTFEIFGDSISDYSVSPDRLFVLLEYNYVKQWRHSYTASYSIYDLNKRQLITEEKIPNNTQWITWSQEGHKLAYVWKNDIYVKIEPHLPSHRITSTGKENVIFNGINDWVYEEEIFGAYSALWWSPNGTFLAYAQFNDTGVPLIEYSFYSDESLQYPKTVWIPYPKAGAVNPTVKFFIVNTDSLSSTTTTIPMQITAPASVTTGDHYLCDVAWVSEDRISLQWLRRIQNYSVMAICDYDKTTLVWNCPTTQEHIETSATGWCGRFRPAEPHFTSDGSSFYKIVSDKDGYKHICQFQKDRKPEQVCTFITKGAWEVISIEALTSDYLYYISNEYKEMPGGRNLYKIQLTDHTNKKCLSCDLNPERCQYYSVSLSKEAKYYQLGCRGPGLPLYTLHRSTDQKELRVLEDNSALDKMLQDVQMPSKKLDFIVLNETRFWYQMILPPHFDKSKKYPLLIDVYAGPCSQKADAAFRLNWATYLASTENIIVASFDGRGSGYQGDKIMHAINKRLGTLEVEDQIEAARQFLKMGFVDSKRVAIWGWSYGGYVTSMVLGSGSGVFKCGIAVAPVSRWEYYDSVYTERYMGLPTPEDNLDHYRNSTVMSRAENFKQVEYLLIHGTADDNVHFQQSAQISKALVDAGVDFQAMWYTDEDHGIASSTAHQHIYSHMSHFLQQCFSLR
T2 sequence (P22411 whole entry): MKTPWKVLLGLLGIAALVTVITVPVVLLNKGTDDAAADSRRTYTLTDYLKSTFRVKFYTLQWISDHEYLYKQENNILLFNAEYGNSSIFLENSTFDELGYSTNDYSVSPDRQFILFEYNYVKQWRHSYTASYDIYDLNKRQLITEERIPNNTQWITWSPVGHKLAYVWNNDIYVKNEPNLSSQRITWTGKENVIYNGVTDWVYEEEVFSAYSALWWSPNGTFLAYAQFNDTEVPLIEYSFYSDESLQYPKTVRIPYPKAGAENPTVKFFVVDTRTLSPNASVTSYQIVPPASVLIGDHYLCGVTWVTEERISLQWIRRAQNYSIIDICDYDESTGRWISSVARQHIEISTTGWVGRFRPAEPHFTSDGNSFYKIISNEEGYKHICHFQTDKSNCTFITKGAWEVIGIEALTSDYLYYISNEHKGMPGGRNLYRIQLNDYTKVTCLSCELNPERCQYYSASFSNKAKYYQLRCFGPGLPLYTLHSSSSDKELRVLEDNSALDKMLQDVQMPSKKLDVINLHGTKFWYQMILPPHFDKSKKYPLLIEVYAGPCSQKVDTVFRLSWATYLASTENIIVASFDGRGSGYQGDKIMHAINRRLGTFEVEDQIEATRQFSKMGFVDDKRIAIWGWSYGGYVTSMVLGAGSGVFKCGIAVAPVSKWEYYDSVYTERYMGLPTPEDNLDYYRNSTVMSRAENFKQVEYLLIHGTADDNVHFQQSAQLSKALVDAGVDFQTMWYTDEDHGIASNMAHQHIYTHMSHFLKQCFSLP
Sequence of purified porcine DPIV (P22411 whole entry): as above
T3 sequence (A0A5G2QK18 28-502): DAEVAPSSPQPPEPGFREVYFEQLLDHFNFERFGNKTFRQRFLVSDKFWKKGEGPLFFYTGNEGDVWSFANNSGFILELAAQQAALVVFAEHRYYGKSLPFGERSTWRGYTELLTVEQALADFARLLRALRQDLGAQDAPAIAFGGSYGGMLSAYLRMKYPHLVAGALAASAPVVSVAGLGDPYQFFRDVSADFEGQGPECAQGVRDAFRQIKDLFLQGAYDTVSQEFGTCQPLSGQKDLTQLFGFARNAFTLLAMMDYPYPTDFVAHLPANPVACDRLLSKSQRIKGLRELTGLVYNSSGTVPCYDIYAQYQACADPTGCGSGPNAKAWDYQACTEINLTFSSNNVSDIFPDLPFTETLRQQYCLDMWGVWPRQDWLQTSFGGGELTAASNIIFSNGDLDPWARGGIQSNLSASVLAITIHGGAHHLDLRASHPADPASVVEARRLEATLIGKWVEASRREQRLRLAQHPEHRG

Row | Compound | Ki [1] | IC50 (purified porcine DPIV) [µM] | also measured
1 | Br.CC(=O)OCC(=O)[C@@H]1CCCN1C(=O)[C@@H](NC(=O)[C@H](C)N)C(C)C [Ala-Val-Pro-acyloxy methyl ketone, H-Ala-Val-Pro-CH2O—C(O)CH3.HBr] |  |  | In vivo DPIV-inhibition at tmax, i.v. (%) (plasma DPIV activity): 89%; In vivo DPIV-inhibition at tmax, p.o. (%) (plasma DPIV activity): 86%
2 | Br.CC(C)[C@H](NC(=O)[C@H](C)N)C(=O)N1CCC[C@H]1C(=O)COC(=O)c1ccccc1 [Ala-Val-Pro-benzoyl-methyl ketone, H-Ala-Val-Pro-CH2O—C(O)Ph.HBr] |  |  | In vivo DPIV-inhibition at tmax, i.v. (%) (plasma DPIV activity): 97%; In vivo DPIV-inhibition at tmax, p.o. (%) (plasma DPIV activity): 76%
3 | NC(=O)CCC(N)C(=O)N1CCSC1 (stereo not drawn) [Gln-Thia, glutaminyl thiazolidine] | 1.21 µM | 527 | Ki [2]: 10.7 µM
4 | NC(=O)CC(N)C(=O)N1CCCC1 (stereo not drawn) [H-Asn-pyrrolidine] | 12 µM |  | 
5 | NC(=O)CC(N)C(=O)N1CCSC1 (stereo not drawn) [H-Asn-thiazolidine] | 3.5 µM |  | 
6 | NC(CC(=O)NO)C(=O)N1CCCC1 (stereo not drawn) [H-Asp(NHOH)-pyrrolidine] | 13 µM |  | 
7 | NC(CC(=O)NO)C(=O)N1CCSC1 (stereo not drawn) [H-Asp(NHOH)-thiazolidine] | 8.8 µM |  | 
8 | NC(CC(=O)O)C(=O)N1CCCC1 (stereo not drawn) [H-Asp-pyrrolidine] | 0.014 µM |  | 
9 | NC(CC(=O)O)C(=O)N1CCSC1 (stereo not drawn) [H-Asp-thiazolidine] | 2.9 µM |  | 
10 | N[C@@H](CCC(=O)NCC(=O)NCC(=O)NCC(=O)O)C(=O)N1CCSC1 [H-Glu(Gly3)-Thia] | 0.0192 µM |  | EC50 (PepT1 [3]): 8540 µM
11 | N[C@@H](CCC(=O)NCC(=O)NCC(=O)NCC(=O)NCC(=O)NCC(=O)O)C(=O)N1CCSC1 [H-Glu(Gly5)-Thia] | 0.0993 µM |  | EC50 (PepT1 [3]): > 10000 µM
12 | NC(CCC(=O)NO)C(=O)N1CCCC1 (stereo not drawn) [H-Glu(NHOH)-pyrrolidine] | 2.8 µM |  | 
13 | NC(CCC(=O)NO)C(=O)N1CCSC1 (stereo not drawn) [H-Glu(NHOH)-thiazolidine] | 1.7 µM |  | EC50 (PepT1 [3]): 3180 µM; Imax, inward currents generated by the transport (PepT1 [4]): 42 ± 11 nA
14 | N[C@@H](CCC(=O)O)C(=O)N1CCSC1 [H-Glu-thiazolidine] | 0.62 µM and 0.61 µM |  | EC50 (PepT1 [3]): 1100 µM; Imax, inward currents generated by the transport (PepT1 [4]): 35 ± 13 nA
15 | NC(Cc1c[nH]cn1)C(=O)N1CCCC1 (stereo not drawn) [H-His-pyrrolidine] | 3.5 µM |  | 
16 | NC(Cc1c[nH]cn1)C(=O)N1CCSC1 (stereo not drawn) [H-His-thiazolidine] | 1.8 µM |  | 
17 | CCC(C)C(N)C(=O)N1CCSC1 (stereo not drawn) [H-Ile-Thia] |  |  | EC50 (PepT1 [3]): 980 µM; Imax, inward currents generated by the transport (PepT1 [4]): 25 ± 8 nA

Row | Compound | Ki [1] | IC50 (purified porcine DPIV) [µM] | also measured
18 | CCC(C)C(N)C(=O)N1CC1 (stereo not drawn) [H-Ile-azididine] | 3.1 µM |  | 
19 | CC(C)C(N)C(=O)N1CCSC1 (stereo not drawn) [H-Val-thiazolidine] | 0.27 µM |  | 
20 | CC[C@H](C)[C@H](N)C(=O)N1C[C@H](O)C[C@H]1C(=O)N[C@H](C(=O)O)[C@@H](C)CC [Ile-Hyp-Ile] (H-Ile-[Hyp]-Ile-OH; N-terminus and C-terminus assumed) |  | 6000 | 
21 | CCC(C)C(N)C(=O)C1CCCCC1 (stereo not drawn) [Ile-cyclohexyl ketone] | 56.8 µM | 293 | 
22 | CCC(C)C(N)C(=O)C1CCCC1 (stereo not drawn) [Ile-cyclopentyl ketone, 1-cyclopentyl-3-methyl-1-oxo-2-pentanaminium chloride] |  | 38.2 | 
23 | CC[C@H](C)[C@H](NC(=O)[C@@H]1CCCN1C(=O)[C@@H]1Cc2ccccc2CN1)C(=O)O [Tic-Pro-Ile] (H-[Tic]-Pro-Ile-OH; N-terminus and C-terminus assumed) |  | 1000 | 
24 | CC[C@H](C)[C@H](NC(=O)[C@@H]1CCCN1C(=O)[C@@H](N)Cc1ccc(OP(=O)(O)O)cc1)C(=O)O [Tyr(P)-Pro-Ile] (H-[pY]-Pro-Ile-OH; N-terminus and C-terminus assumed) |  | 2000 | In vivo DPIV-inhibition at tmax, p.o. (%) (plasma DPIV activity): no inhibition
25 | CC(=O)C1CCCN1C(=O)C(N)C(C)C (stereo not drawn) [Val-Pro-methyl ketone] | 0.0476 µM | 0.579 | 
26 | CC(C)[C@H](N)C(=O)N1CCC[C@H]1C(=O)N[C@H](C(=O)O)C(C)(C)C [Val-Pro-t-butyl-Gly] (H-Val-Pro-[Tle]-OH; N-terminus and C-terminus assumed) |  | 67.5 | 
27 | CC(C)C(N)C(=O)C1CCCC1 (stereo not drawn) [Val-cyclopentyl ketone] | 13.1 µM | 49 | 
28 | CC(C)(C)C(N)C(=O)C1CCCCC1 (stereo not drawn) [t-butyl-Gly-cyclohexyl ketone] | 273 µM | 273 | 
29 | CC(C)[C@H](N)C(=O)N1CCCC1.O=C(O)/C=C/C(=O)O [valyl pyrrolidine fumarate] |  |  | tumor cell adhesion, CFSE positive cells in lung tissue (MADB106 tumor cells): no significant effect; also recorded: significant differences vs. saline treated controls were not found
30 | H-Glu(PEG)-Thia | 3.11 µM |  | EC50 (PepT1 [3]; read-out: EC50, concentration inhibiting binding of 3H-D-Phe-Ala to PepT1-expressing P. pastoris cells by 50%): > 10000 µM
31 | Val-Pro-acyloxy methyl ketone | 0.00105 µM | 0.0102 | 
32 | Val-Pro-benzothiazol methyl ketone | 0.0373 µM | 0.138 | 
33 | Val-Pro-benzoyl methyl ketone | 0.000536 µM | 0.0179 | 
34 | Val-cyclohexyl ketone |  | 1000 | 
